Test results as given in patent US20110172163A1, “Novel Protease Inhibitors” (QUEENSLAND UNIVERSITY OF TECHNOLOGY, priority 2008, published 2011).
Where “and” joins values, the source holds several entries; their conditions need not be identical. Equal entries are not always repeated. Where two headings read alike, the source gives them in different places. Bridge positions count the residues as written; N and C are the ends. Peptide text beside a SMILES is read from it.

Legend:
[1] = target: T1, KLK4 (Homo sapiens, UniProt Q9Y5K2); assay: Inhibitor kinetics: KLK4 amidolytic activity with peptide-pNA substrates; type: biochemical; parameters: pro-region of PSA (KLK3), replacing the native KLK4 pro-region (N, cleaved yes); made in house
Method: (§1) Human recombinant KLK4 was expressed in E. coli using a previously described chimeric KLK4 plasmid construct where the native pro-region was replaced with the pro-region of PSA, enabling autoactivation. Protein was expressed as inclusion bodies which were isolated and solubilised as described previously to yield 90% pure KLK4. Protein refolding was performed by dilution into 100 volumes of refolding buffer I (2 M urea, 0.1M NaCl, 5 mM GSH, 0.5 mM GSSG, 10 mM benzamidine, 50 mM tris HCl pH 8.0, 2 mM CaCl2) over 44 hours before further dilution into 3 volumes refolding buffer II (refolding buffer I with 0.5 M urea 0.5 mM GSH, 0.05 mM GSSG, 2 mM CaCl2) over another 24 hours. Dialysis was performed as previously described (with additional 2 mM CaCl2 to reduce aggregation) before concentration using UNO sphere Q (Biorad) eluting with tris buffered saline (pH 7.5)/2 mM CaCl2. Subsequently, the material was purified to apparent homogeneity (according to coomassie blue stained SDS PAGE) by gel filtration using Sephacryl S-200 (GE Health Care) pre-equilibrated with 50 mM Tris-HCl pH 7.5, 20 mM NaCl and 2 mM CaCl2.
All enzymes and substrates were obtained from Sigma Chemicals if not otherwise specified. Bacterially expressed human KLK4 (37 ng), bovine β-trypsin (20 ng), bovine thrombin (20 ng), bovine α-chymotrypsin (0.5 μg), protease (0.5 μg; Streptomyces griseus type XIV), bovine plasminogen (0.5 μg), and human matriptase (30 ng; R&D Systems) were incubated with various concentrations of inhibitors in 200 μL assay buffer for 10 minutes prior to initiation by the addition of 100 μL of 0.3 mM of peptide-pNA substrates (FVQR-pNA: KLK4; BAPNA: trypsin, (Streptomyces griseus Type XIV Protease and bovine plasma plasminogen); Bz-Phe-Val-Arg-pNA: thrombin and matriptase; Trp-pNA: α-chymotrypsin; Leu-pNA: (Streptomyces griseus Type XIV Protease and bovine plasma plasminogen). The release of pNa moiety was monitored as described above for 7 minutes with each point being the average of three independent triplicate reactions. IC50 was determined using the Prism 5 software suite (GraphPad software Inc.).

[2] = target: T2, bovine β-trypsin (Bos taurus, UniProt P00760); assay: Inhibitor kinetics: trypsin amidolytic activity; type: biochemical; settings: substrate BAPNA (0.2 mM)
T2 construct: bovine β-trypsin (20 ng); purchased Sigma Chemicals
T2 sequence (P00760 24-246): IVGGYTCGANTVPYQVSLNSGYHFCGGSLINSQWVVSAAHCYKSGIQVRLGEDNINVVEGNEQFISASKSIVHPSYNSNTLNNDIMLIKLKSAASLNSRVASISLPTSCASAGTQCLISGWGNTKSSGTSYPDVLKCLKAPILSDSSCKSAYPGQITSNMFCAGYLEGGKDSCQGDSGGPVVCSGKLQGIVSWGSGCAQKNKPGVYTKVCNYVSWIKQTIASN
Method: (§2) All enzymes and substrates were obtained from Sigma Chemicals if not otherwise specified. […] The release of pNa moiety was monitored as described above for 7 minutes with each point being the average of three independent triplicate reactions. IC50 was determined using the Prism 5 software suite (GraphPad software Inc.).

[3] = target: KLK12 (Homo sapiens, UniProt Q9UKR0); assay: Protein proteolysis: fibrinogen digestion by KLK12; type: biochemical; settings: at a concentration of 10000 nM
[4] = target: KLK14 (Homo sapiens, UniProt Q9P0G3); assay: Protein proteolysis: fibrinogen digestion by KLK14; type: biochemical; settings: at a concentration of 10000 nM
[5] = target: T3, human matriptase (Homo sapiens, UniProt Q9Y5Y6); assay: Inhibitor kinetics: matriptase amidolytic activity; type: biochemical; settings: substrate Bz-FVR-pNA (0.2 mM); read-out: IC50
T3 construct: purchased R&D Systems
T3 sequence (Q9Y5Y6 615-855 limits assumed): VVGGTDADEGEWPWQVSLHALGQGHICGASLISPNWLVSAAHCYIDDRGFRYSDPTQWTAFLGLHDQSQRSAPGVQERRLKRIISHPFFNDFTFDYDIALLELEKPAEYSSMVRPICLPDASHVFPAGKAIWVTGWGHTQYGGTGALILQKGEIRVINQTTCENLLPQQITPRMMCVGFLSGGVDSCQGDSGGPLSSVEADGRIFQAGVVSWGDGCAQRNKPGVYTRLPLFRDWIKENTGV
Method: as §2

[6] = target: T4, bovine thrombin (Bos taurus, UniProt P00735); assay: Inhibitor kinetics: thrombin amidolytic activity; type: biochemical; settings: substrate Bz-FVR-pNA (0.2 mM); read-out: IC50
T4 construct: purchased Sigma Chemicals
Method: as §2

[7] = Figure 3 (D)
Method: Table printed on a drawing sheet, Figure 3 (D)
The patent's description of the figure: FIG. 3. Stability of SFTI variants in contact with prostate cancer cells in vitro. Residual SFTI-FCQR was assayed in tissue culture supernatants from prostate cancer cells treated with a single dose of inhibitor at time =0. Stability was assessed against LNCaP (closed circles), 22RV1 (open circles) and PC3 cells (triangles) for (A) SFTI-FCQR, (B) SFTI-FCQR Asn14 and (C) SFTI-FCQR Lys14 as summarized in (D). Data represented as mean±SEM from three independent experiments in triplicates.
First reader's note: Half-life of residual inhibitor activity in culture supernatants of prostate cancer cell lines, summarising panels (A)-(C).

[8] = target: T5, bovine α-chymotrypsin (Bos taurus, UniProt P00766); assay: Inhibitor kinetics: α-chymotrypsin amidolytic activity; type: biochemical; settings: substrate W-pNA (0.2 mM); read-out: IC50
T5 construct: purchased Sigma Chemicals
Method: as §2

[9] = tested on: protease (Streptomyces griseus type XIV); assay: Inhibitor kinetics: Streptomyces griseus type XIV protease; type: biochemical; settings: substrate L-pNA
Method: as §2

[10] = Stability of SFTI variants in contact with prostate cancer cells in vitro; type: in vitro ADME; settings: prostate cancer cell lines in serum containing medium
Method: Cell monolayers of LNCaP, 22Rv1 and PC3 cells were established in RPMI 1640 medium containing 10% fetal calf serum. Each cell line was treated +/−1 μM SFTI-FCQR contained in 4.0 mL RPMI media (as above) with a vehicle control to account for inhibition by intrinsic media factors. 25 μL samples of media were taken at 0, 24, 48, 72, 96 and 120 hrs timepoints. Media samples were boiled at 97° C. for 15 min, centrifuged at 14,000 rpm for 5 min to remove cellular debris and precipitated protein. Residual SFTI-FCQR inhibitory activity in the medium was determined against recombinant KLK4 using FVQR-pNA as a peptide substrate as above using 15ng KLK4 and 30 nmol FVQR-pNA with 2.5 μL and […] of media+/−SFTI-FCQR added from each treatment.

[11] = target: T6, iKLK14 (Homo sapiens, UniProt Q9P0G3); assay: Inhibitor kinetics: KLK14 amidolytic activity; type: biochemical
T6 construct: made in house

[12] = target: T7, trypsin (Bos taurus, UniProt P00760); assay: Protein proteolysis: fibrinogen digestion by trypsin (SDS-PAGE); type: biochemical, bovine; settings: SDS-PAGE
T7 construct: purchased Sigma Chemicals
Method: (§3) Fibrinogen was solubilised in assay buffer to a final concentration of 1 mg/ml and digested with KLK4 (+/−inhibitor) over a period of 90 minutes at 37° C. Typically assays consisted of 5 μM protein substrate and 2.5 nM KLK4 protein or 1 nM trypsin made up to a final volume of 8 μl with assay buffer. Proteolysis was initiated by addition of KLK4 and terminated by addition of SDS PAGE sample buffer and heat denaturation at 100° C. for 5 minutes. Hydrolysis products were resolved on 10% SDS PAGE gels and compared with incubations terminated immediately after initiation (time 0), and substrate proteins incubated in assay buffer for 90 minutes in the absence of KLK4 or 4-16 mins with trypsin.

[13] = target: T1, KLK4; assay: Protein proteolysis: fibrinogen digestion by KLK4 (SDS-PAGE); type: biochemical; parameters: pro-region of PSA (KLK3), replacing the native KLK4 pro-region (only if the E. coli preparation was used) (N, cleaved yes); made in house; settings: inhibitor at 2 μM
Method: as §3

[14] = target: Thrombin; settings: cited from earlier work
[15] = substrate: CC(=O)N[C@@H](Cc1ccccc1)C(=O)N[C@H](C(=O)N[C@@H](CCCNC(=N)N)C(=O)Nc1ccc([N+](=O)[O-])cc1)C(C)C; assay: Kinetic studies of para-nitroanilide substrates with KLK4; type: biochemical, human; settings: other: para-Nitroanilide substrate
Method: as §1
(§4) Kinetic Studies Active site titration was carried out according to Beynon et al., replacing α1-proteinase inhibitor with soybean trypsin inhibitor. Enzymatic activity assays were performed with 4.9 nM KLK4 and substrate concentrations in the range of 0-600 μM in 300 μL of assay buffer with hydrolysis monitored over 5 minutes as described for the substrate screen. The data was fitted to the Michaelis-Menten equation by […] analysis using the Prism 5 software suite (GraphPad Software Inc.).

[16] = substrate: CSCC[C@H](NC(=O)[C@@H](NC(=O)[C@@H](N)Cc1ccccc1)C(C)C)C(=O)N[C@@H](CCCNC(=N)N)C(=O)Nc1ccc([N+](=O)[O-])cc1; assay: as above; type: biochemical, human; settings: other: para-Nitroanilide substrate
Method: as §1, §4

[17] = substrate: CC(C)[C@H](NC(=O)[C@H](Cc1ccccc1)NC(=O)c1ccccc1)C(=O)N[C@@H](CCCNC(=N)N)C(=O)Nc1ccc([N+](=O)[O-])cc1; assay: as above; type: biochemical, human; settings: other: para-Nitroanilide substrate
Method: as §1, §4

[18] = substrate FVQR-pNA (0.2 mM), read-out: IC50

Chain of KLK14 (Q9P0G3 35-267 limits assumed): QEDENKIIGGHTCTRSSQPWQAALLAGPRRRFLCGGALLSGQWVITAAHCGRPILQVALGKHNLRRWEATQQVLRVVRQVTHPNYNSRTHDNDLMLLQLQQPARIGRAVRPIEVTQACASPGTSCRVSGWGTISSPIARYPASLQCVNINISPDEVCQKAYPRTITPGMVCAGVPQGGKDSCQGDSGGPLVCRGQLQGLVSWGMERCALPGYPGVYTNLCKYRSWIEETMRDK
T6 sequence (Q9P0G3 41-267): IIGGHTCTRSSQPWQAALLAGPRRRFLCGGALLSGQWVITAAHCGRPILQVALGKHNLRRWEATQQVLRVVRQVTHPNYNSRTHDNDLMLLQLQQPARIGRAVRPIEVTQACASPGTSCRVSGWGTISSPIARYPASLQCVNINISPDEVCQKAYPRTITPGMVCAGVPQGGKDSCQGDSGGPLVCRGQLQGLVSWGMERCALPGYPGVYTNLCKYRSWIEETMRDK
T7 sequence (P00760 18-246 limits assumed): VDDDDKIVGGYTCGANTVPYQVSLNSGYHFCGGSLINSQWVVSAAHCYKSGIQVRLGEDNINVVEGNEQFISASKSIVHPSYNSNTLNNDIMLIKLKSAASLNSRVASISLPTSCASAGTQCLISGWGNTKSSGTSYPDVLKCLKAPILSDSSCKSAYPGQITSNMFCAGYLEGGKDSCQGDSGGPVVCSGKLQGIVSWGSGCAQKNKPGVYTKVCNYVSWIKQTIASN
Chain of KLK12 (Q9UKR0 18-248): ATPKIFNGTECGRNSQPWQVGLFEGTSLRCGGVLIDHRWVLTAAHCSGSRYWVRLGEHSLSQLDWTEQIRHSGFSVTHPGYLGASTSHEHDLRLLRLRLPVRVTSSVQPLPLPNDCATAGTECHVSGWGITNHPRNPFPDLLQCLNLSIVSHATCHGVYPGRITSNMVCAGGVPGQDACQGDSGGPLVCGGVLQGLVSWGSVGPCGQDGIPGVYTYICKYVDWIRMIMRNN

For `CC[C@H](C)[C@@H]1NC(=O)[C@H](C)NC(=O)[C@@H]2CCCN2C(=O)[C@H]([C@@H](C)CC)NC(=O)[C@H](CO)NC(=O)[C@H](CCCNC(=N)N)NC(=O)[C@H](CCC(N)=O)NC(=O)[C@@H]2CSSC[C@H](NC1=O)C(=O)N[C@@H](Cc1ccccc1)C(=O)N1CCC[C@H]1C(=O)N[C@@H](CC(=O)O)C(=O)NCC(=O)N[C@@H](Cc1ccccc1)C(=O)N2` [SFTI-FCQR Ala9] (cyclo(AICFPDGFCQRSIP); disulfide 3-9), the IC50 [1, 18] was 1140 ± 76 nM.

In the case of `CC[C@H](C)[C@@H]1NC(=O)[C@@H]2CCCN2C(=O)[C@@H]2CCCN2C(=O)[C@H]([C@@H](C)CC)NC(=O)[C@H](CO)NC(=O)[C@H](CCCNC(=N)N)NC(=O)[C@H](CCC(N)=O)NC(=O)[C@@H]2CSSC[C@H](NC1=O)C(=O)N[C@@H](Cc1ccccc1)C(=O)N1CCC[C@H]1C(=O)N[C@@H](CC(N)=O)C(=O)NCC(=O)N[C@@H](Cc1ccccc1)C(=O)N2` [SFTI-FCQR Asn14] (cyclo(GFCQRSIPPICFPN); disulfide 3-11), the IC50 ([2]; read-out: IC50) is reported as 2580 ± 508 nM, the “inhibition of KLK12 digestion of fibrinogen” value [3] is reported as “did not inhibit” and the “inhibition of KLK14 digestion of fibrinogen” value [4] is reported as “did not inhibit”. The IC50 [5] was greater than 10000 nM, the IC50 [6] was greater than 10000 nM and the “Half-life” value [7] was 70 h. The IC50 [8] was greater than 10000 nM, the IC50 [9] was greater than 10000 nM and the IC50 [1] was 0.063 ± 0.002 nM. For the same molecule, the “half life of inhibition (in words)” value [10] was “in the order of days” and the IC50 [11] was 251 ± 6.65 nM.

In the case of `CC[C@H](C)[C@@H]1NC(=O)[C@@H]2CCCN2C(=O)[C@@H]2CCCN2C(=O)[C@H]([C@@H](C)CC)NC(=O)[C@H](CO)NC(=O)[C@H](CCCNC(=N)N)NC(=O)[C@H](CCC(N)=O)NC(=O)[C@@H]2CSSC[C@H](NC1=O)C(=O)N[C@@H](Cc1ccccc1)C(=O)N1CCC[C@H]1C(=O)N[C@@H](CCCCN)C(=O)NCC(=O)N[C@@H](Cc1ccccc1)C(=O)N2` [SFTI-FCQR Lys14] (cyclo(GFCQRSIPPICFPK); disulfide 3-11), the IC50 [2] is reported as “Inhibitor degraded”, the IC50 [5] is reported as greater than 10000 nM and the IC50 [6] is reported as greater than 10000 nM. For the same molecule, the “Half-life” value [7] was 9 h and 10 h, the IC50 [8] was greater than 10000 nM and the IC50 [9] was greater than 10000 nM. The “IC50 against KLK4 compared with SFTI-FCQR Asn14” value ([1]; substrate FVQR-pNA) was “nearly three orders of magnitude higher”, the IC50 [1, 18] was 98.9 ± 4.09 nM and the “half life of inhibition (in words)” value [10] was “curtailed half life”.

In the case of “Sunflower trypsin inhibitor [SFTI-1, reference compound]”, the “concentration that completely inhibits trypsin digestion of fibrinogen” value [12] is given as 31.25 nM, the “inhibition of fibrinogen proteolysis by KLK4” value [13] is given as “no inhibition” and the Ki ([14]; substrate N-t-Boc-LRR-AMC, Long et al. 2001) is given as 5050 nM. The Ki ([14]; substrate Unknown, Luckett et al. 1999) was 136 nM.

B1: KLK4 (Homo sapiens) (protein)
chain: IINGEDCSPHSQPWQAALVMENELFCSGVLVHPQWVLSAAHCFQNSYTIGLGLHSLEADQEPGSQMVEASLSVRHPEYNRPLLANDLMLIKLDESVSESDTIRSISIASQCPTAGNSCLVSGWGLLANGRMPTVLQCVNVSVVSEEVCSKLYDPLYHPSMFCAGGGHDQKDSCNGDSGGPLICNGYLQGLVSFGKAPCGQVGVPGVYTNLCKFTEWIEKTVQAS
notes: pro-region of PSA (KLK3), replacing the native KLK4 pro-region (only if the E. coli preparation was used) (N, cleaved yes); made in house
In the case of B1, the Km [15] is reported as 194.9 ± 41.4 µM, the kcat [15] is reported as 0.3 ± 0.032 s⁻¹ and the kcat/Km [15] is reported as 1540 ± 240 M⁻¹ s⁻¹. It also gave a Km [16] of 74.7 ± 10.3 µM, a Km [17] of 42.5 ± 5.9 µM and a kcat [17] of 0.57 ± 0.031 s⁻¹. For the same molecule, the kcat/Km [17] was 13400 ± 1500 M⁻¹ s⁻¹.
